From ChEMBL document CHEMBL1201862, “PubChem BioAssay data set” (2004) come the findings set out here.

Values joined by “and” are separate entries in the source; they are usually repeats but may differ in a detail not shown here. Equal values may be shown once. Active and inactive are the calls of the source. Where only a bound is given, the exact number is not on record here.

For experiment [1], the target named is E3 ubiquitin-protein ligase Mdm2 (Homo sapiens, UniProt Q00987). In words: MDM2-luc reporter signal enhancers, multi-concentration potency testing, MDM2 ubiquitin-protein ligase inhibitor program, whole-cell format, luminescence detection, 384-well microplate (AID 1394).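 Note: MDM2 E3 inhibitors raise luminescence so EC50 is for signal enhancement.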 Format: functional.
Experiment [2] addresses G-protein coupled receptor 55 (Homo sapiens, UniProt Q9Y2T6). Briefly: inhibition of LPI-stimulated GPR55 beta-arrestin translocation – imaging, U2OS, beta-arrestin-GFP, LPI agonist, primary screen (AID 2013).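 Note: antagonist potency measured as reduced agonist-driven arrestin aggregation.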 Format: functional.
The target of experiment [3] is T1, Replicative DNA helicase DnaB (Mycobacterium tuberculosis, UniProt P9WMR3).
T1 sequence (P9WMR3 whole entry): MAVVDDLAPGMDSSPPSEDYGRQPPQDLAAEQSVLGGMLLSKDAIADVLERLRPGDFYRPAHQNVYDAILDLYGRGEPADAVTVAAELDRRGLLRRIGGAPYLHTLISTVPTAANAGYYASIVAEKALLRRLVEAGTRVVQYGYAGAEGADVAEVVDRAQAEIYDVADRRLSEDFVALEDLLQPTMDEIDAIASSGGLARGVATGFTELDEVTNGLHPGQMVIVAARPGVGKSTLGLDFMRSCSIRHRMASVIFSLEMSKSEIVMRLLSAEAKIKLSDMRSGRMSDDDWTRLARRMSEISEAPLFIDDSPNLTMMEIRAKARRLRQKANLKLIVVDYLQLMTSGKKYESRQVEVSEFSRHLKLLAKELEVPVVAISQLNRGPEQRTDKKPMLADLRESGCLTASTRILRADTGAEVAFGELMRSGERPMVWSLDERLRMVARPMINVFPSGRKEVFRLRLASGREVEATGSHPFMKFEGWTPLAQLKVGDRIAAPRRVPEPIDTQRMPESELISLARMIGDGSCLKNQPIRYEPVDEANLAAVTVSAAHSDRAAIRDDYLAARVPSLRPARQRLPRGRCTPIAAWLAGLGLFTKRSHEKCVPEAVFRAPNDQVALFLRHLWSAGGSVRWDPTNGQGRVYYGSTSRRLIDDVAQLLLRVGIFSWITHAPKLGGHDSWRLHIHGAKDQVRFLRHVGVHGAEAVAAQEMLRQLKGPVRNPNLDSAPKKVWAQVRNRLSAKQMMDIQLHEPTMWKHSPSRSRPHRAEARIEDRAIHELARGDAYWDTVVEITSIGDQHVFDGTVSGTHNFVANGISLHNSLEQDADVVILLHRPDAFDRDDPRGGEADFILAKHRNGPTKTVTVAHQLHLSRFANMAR
In words: DnaB intein splicing inhibitors, dose response, biochemical, cell-free fluorescence (AID 449749). The experiment is classed as functional.

The target of the next experiment is T2, Protein RecA (Mycobacterium tuberculosis, UniProt P9WHJ3).
T2 sequence (P9WHJ3 whole entry): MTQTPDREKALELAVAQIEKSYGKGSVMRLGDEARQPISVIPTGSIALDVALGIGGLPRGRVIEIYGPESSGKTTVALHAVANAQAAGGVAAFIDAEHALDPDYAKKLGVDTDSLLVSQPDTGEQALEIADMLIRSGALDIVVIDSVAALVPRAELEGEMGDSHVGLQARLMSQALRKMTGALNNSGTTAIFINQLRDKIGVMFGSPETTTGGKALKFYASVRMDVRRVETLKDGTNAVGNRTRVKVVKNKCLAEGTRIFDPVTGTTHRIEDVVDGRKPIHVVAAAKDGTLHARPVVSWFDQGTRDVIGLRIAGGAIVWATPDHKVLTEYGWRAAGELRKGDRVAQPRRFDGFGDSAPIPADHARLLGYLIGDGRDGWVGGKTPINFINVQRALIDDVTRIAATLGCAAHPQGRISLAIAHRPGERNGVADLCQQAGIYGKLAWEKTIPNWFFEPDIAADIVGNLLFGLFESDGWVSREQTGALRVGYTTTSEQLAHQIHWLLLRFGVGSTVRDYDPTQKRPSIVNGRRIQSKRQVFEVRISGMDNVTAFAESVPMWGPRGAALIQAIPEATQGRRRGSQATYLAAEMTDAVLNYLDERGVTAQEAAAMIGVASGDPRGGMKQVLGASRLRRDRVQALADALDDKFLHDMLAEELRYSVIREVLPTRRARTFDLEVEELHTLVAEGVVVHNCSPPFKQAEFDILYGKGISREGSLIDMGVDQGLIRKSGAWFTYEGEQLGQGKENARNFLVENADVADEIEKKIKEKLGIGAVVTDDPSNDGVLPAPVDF
Briefly: Fluorescence Cell-Free Homogeneous Dose Retest to Identify Inhibitors of RecA-Intein Splicing Activity. [Related pubchem assays (depositor defined):AID2097, AID2223, AID489010, AID492950]. Format: functional.

Experiment [4] can be described thus: rise of 2N DNA cells, HeLa – IC50, dose response (AID 1117349). Format: functional, cell-based.
Experiment [5] in a line: CellTiter-Glo luminescence survival assay, SW480 colon tumor line, concentration-response curve, half-maximal inhibitory concentration (AID 1117338). The experiment is classed as functional.
Experiment [6] can be described thus: RKO cell viability reduction, dose response, CellTiter-Glo luminescence (AID 1117322). Format: functional.
Experiment [7] can be described thus: cytotoxicity toward HCT116 cells – cell-based, CellTiter-Glo luminescence, IC50, dose response (AID 1117332). Format: functional. As to conditions: HCT-116.
Experiment [8] can be described thus: SNU-C1 cell viability reduction, dose response, CellTiter-Glo luminescence (AID 1117323). The experiment is classed as functional, cell-based.
Experiment [9] in a line: cytotoxicity toward Colo320 cells – cell-based, CellTiter-Glo luminescence, IC50, dose response (AID 1117334). Format: functional. As to conditions: COLO 320.
Experiment [10] can be described thus: rise of 4N DNA cells, HeLa – IC50, dose response (AID 1117351). Format: functional, cell-based.
Experiment [11] is described as follows: cytotoxicity toward HT-29 cells – cell-based, CellTiter-Glo luminescence, IC50, dose response (AID 1117330). Format: functional.
Experiment [12] is described as follows: Reduced DLD-1 viability, concentration-response, CellTiter-Glo luminescence (AID 1117352). The experiment is classed as functional.
The nature of experiment [13]: HCT116 cell viability decrease, GSK3B pretreatment – CellTiter-Glo, IC50, dose response (AID 1117339). The experiment is classed as functional. As to conditions: HCT-116.
The target of experiment [14] is T3, Oxysterols receptor LXR-beta (Homo sapiens, UniProt P55055).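 Note: Cell-based luminescence dose-response assay of agonist activity at LXR, run as a confirmatory counterscreen to a daf-12 agonist screen; HEK293 cells with Gal4-LXR fusion and GAL4-driven luciferase reporter; agonist potency from rising luciferase signal of a Gal4-LXR reporter.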
T3 sequence (P55055 whole entry): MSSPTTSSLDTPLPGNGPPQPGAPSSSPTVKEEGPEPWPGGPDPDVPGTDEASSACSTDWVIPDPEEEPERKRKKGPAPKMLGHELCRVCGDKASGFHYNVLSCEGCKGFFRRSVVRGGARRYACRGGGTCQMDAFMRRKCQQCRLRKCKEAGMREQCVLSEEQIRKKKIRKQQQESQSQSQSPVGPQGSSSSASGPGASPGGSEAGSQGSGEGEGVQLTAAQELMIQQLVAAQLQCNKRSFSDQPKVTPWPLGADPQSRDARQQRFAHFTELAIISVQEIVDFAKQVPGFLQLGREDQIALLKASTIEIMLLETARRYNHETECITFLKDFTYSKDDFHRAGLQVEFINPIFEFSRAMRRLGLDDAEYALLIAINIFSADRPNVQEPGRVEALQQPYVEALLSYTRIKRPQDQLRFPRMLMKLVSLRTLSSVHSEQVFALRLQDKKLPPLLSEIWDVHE
Format: functional, cell-based.

Experiment [15] is described as follows: inhibition of Env-driven cell fusion – HIV entry, plate reader, dry powder, dose response (AID 687023). The experiment is classed as functional, cell-based.
A short description of experiment [16]: viability loss in CEM21 cells – cell-based, plate reader, dry powder, cytotoxicity control, dose response (AID 687026). Format: functional.
Experiment [17] has as its target NAD-dependent protein deacylase sirtuin-5, mitochondrial (Homo sapiens, UniProt Q9NXA8). Briefly: blockers of sirtuin-5 peptide desuccinylation – biochemical, fluorescence imaging, cherry-pick, set 6, dose response (AID 720597).
Experiment [18] concerns the target Diphosphomevalonate decarboxylase (Streptococcus pneumoniae serotype 2 (strain D39 / NCTC 7466), UniProt Q9FD53). Briefly: diphosphomevalonate decarboxylase inhibitor confirmation – biochemical, cuvette format, coupled NADH fluorescence (AID 1028). The experiment is classed as functional.
Experiment [19] has as its target Mitogen-activated protein kinase 10 (Homo sapiens, UniProt P53779). In words: Dose response biochemical screening assay for inhibitors of c-Jun N-Terminal Kinase 3 (JNK3). [Related pubchem assays: 746 ].

Chain of NAD-dependent protein deacylase sirtuin-5, mitochondrial (Q9NXA8 whole entry): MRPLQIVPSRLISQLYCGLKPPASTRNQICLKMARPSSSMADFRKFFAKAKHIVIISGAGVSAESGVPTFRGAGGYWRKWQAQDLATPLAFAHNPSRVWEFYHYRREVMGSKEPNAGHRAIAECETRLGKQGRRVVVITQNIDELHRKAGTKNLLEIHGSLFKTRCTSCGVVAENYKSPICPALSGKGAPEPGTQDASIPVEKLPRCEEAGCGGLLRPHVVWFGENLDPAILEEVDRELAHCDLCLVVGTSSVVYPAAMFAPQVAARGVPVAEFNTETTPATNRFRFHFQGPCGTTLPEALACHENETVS
Chain of G-protein coupled receptor 55 (Q9Y2T6 whole entry): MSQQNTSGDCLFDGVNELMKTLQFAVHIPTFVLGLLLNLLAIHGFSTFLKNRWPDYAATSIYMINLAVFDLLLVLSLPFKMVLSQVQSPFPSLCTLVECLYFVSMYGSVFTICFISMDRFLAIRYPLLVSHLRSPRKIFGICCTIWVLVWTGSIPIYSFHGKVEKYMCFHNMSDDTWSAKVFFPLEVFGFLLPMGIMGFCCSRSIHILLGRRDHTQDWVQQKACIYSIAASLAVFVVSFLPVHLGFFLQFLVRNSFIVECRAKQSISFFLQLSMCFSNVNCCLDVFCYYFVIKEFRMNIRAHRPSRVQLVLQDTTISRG
Chain of Diphosphomevalonate decarboxylase (Q9FD53 whole entry): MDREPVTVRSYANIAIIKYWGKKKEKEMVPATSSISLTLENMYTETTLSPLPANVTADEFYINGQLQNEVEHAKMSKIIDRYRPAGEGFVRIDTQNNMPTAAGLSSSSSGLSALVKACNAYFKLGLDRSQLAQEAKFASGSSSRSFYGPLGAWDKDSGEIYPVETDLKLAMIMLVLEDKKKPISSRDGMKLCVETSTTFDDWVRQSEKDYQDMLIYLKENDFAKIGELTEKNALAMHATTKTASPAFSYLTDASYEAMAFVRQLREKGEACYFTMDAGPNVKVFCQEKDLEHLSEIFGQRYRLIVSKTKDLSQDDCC
Chain of E3 ubiquitin-protein ligase Mdm2 (Q00987 whole entry): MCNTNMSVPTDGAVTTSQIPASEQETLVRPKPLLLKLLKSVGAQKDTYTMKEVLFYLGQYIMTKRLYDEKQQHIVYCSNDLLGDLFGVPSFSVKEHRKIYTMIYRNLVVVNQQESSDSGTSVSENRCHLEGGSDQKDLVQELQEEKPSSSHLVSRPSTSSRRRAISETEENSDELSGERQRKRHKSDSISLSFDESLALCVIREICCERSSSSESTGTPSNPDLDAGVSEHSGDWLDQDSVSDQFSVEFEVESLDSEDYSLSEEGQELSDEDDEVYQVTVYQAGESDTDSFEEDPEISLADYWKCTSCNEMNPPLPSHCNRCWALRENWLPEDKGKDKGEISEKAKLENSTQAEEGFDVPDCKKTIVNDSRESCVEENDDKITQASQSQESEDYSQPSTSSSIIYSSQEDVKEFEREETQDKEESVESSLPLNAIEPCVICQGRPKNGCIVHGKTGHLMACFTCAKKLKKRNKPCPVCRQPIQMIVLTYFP
Chain of Mitogen-activated protein kinase 10 (P53779 whole entry): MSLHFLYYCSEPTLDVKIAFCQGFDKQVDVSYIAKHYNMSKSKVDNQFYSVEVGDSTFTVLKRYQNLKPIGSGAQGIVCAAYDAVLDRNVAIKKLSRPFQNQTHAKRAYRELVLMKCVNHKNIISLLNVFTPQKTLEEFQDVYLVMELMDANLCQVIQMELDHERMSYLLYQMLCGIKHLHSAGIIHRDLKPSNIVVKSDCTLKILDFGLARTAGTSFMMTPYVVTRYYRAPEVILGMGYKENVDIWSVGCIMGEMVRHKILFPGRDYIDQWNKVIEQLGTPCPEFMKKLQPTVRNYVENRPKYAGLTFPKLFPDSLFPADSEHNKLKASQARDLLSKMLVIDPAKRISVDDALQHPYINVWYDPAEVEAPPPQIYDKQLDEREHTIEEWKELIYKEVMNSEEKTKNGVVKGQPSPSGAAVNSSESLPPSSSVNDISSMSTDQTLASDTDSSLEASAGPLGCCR

In the case of `CN(C(=O)c1cccc(COc2ccc(Cl)cc2Cl)c1)c1ccccc1`, the EC50 in experiment [1] was 0.16 µM (active); on Protein RecA, 7.59 µM (active). In addition, the half-maximal inhibitory concentration (IC50) in experiment [2] was 2.2 µM (active). Further, the AC50 in [3] is 10.6 µM (active).

For the compound `Cc1nc2ccc(CN(C)c3ccc(C(=O)N[C@@H](CCC(=O)O)C(=O)O)s3)cc2c(=O)[nH]1`, the IC50 in [4] was > 10 µM (inactive); in experiment [5], 0.001 µM (active); in [6] it was 0.00288 µM (active); in [7], 0.00424 µM (active); in experiment [8] it was > 20 µM (inactive); in experiment [9], > 20 µM (inactive). Also, the IC50 is > 10 µM (inactive) in experiment [10], > 20 µM (inactive) in [11], > 20 µM (inactive) in experiment [12] and 0.0023 µM (active) in experiment [13].

Take `N#Cc1ccsc1NC(=O)CSc1nncs1`: the EC50 (in experiment [14]; in the experiment “cells”) was > 67.5 µM (inactive) throughout.

Regarding `CCOc1ccc(S(=O)(=O)NCc2ccncc2)cc1Cl`, the AC50 in experiment [15] is 92.5 nM (active) and 125 nM (active); in experiment [16], > 70 µM (inactive).

For the compound `C[C@@H]1CCCCO[C@H](CN(C)Cc2ccccc2)[C@H](C)CN([C@H](C)CO)C(=O)c2cc(NC(=O)CCC(F)(F)F)ccc2O1`, in experiment [17], the AC50 is > 30 µM (inactive).

Turning to `CCCNC(=O)c1ccccc1-n1sc2ccccc2c1=O`, in experiment [18], the IC50 was 31.3 µM (active).

Consider `COc1ccc(C(=O)NCc2nc3ccccc3[nH]2)cc1OC`, for which, in experiment [19], the half-inhibitory concentration (IC50) was 23.2 µM (not active).
